Test results: the supplement of paper PMC10307832

What was measured:
Test in all cases: relative viability (nuclei count vs DMSO), 5 days (fraction); higher = more cells survive
[1] = tested on: 201T
In short: (§1)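 Relative viability is defined as nuclei in treated wells over nuclei in vehicle wells. Duplicate plates were run and medians reported. Lung cancer cell lines in 1536-well plates were dosed by pin tool one day after seeding, with one drug or with a fixed anchor-drug dose plus five library-drug doses (not always all listed) in √10 steps, and nuclei were counted after 5 days.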

[2] = tested on: BEN
In short: as §1

[3] = tested on: COR-L 105
In short: as §1

[4] = tested on: EKVX
In short: as §1

[5] = tested on: EPLC-272H
In short: as §1

[6] = tested on: H3255
In short: as §1

[7] = tested on: HCC-44
In short: as §1

[8] = tested on: HCC-827
In short: as §1

[9] = tested on: HOP-62
In short: as §1

[10] = tested on: LCLC-97TM1
In short: as §1

[11] = tested on: LOU-NH91
In short: as §1

[12] = tested on: LU99A
In short: as §1

Structure (SMILES): Clc1ccc(Nc2nnc(Cc3ccncc3)c3ccccc23)cc1 [Vatalanib] + CC(=O)c1c(C)c2cnc(Nc3ccc(N4CCNCC4)cn3)nc2n(C2CCCC2)c1=O [Palbociclib] (partner 0.5 µM)
- relative viability ([1]; first compound 0.04 µM): 0.777
- relative viability ([1]; first compound 0.1265 µM): 0.344
- relative viability ([1]; first compound 0.4 µM): 0.348
- relative viability ([1]; first compound 1.265 µM): 0.341
- relative viability ([1]; first compound 4 µM): 0.332
- relative viability ([2]; first compound 0.04 µM): 0.474
- relative viability ([2]; first compound 0.1265 µM): 0.456
- relative viability ([2]; first compound 0.4 µM): 0.948
- relative viability ([2]; first compound 1.265 µM): 0.489
- relative viability ([2]; first compound 4 µM): 0.489
- relative viability ([3]; first compound 0.04 µM): 0.404
- relative viability ([3]; first compound 0.1265 µM): 0.369
- relative viability ([3]; first compound 0.4 µM): 0.402
- relative viability ([3]; first compound 1.265 µM): 0.441
- relative viability ([3]; first compound 4 µM): 0.396
- relative viability ([4]; first compound 0.04 µM): 0.366
- relative viability ([4]; first compound 0.1265 µM): 0.369
- relative viability ([4]; first compound 0.4 µM): 0.343
- relative viability ([4]; first compound 1.265 µM): 0.375
- relative viability ([4]; first compound 4 µM): 0.334
- relative viability ([5]; first compound 0.04 µM): 0.361
- relative viability ([5]; first compound 0.1265 µM): 0.344
- relative viability ([5]; first compound 0.4 µM): 0.372
- relative viability ([5]; first compound 1.265 µM): 0.315
- relative viability ([5]; first compound 4 µM): 0.358
- relative viability ([6]; first compound 0.04 µM): 0.308
- relative viability ([6]; first compound 0.1265 µM): 0.273
- relative viability ([6]; first compound 0.4 µM): 0.325
- relative viability ([6]; first compound 1.265 µM): 0.296
- relative viability ([6]; first compound 4 µM): 0.309
- relative viability ([7]; first compound 0.04 µM): 0.922
- relative viability ([7]; first compound 0.1265 µM): 0.981
- relative viability ([7]; first compound 0.4 µM): 0.913
- relative viability ([7]; first compound 1.265 µM): 0.955
- relative viability ([7]; first compound 4 µM): 0.959
- relative viability ([8]; first compound 0.04 µM): 0.484
- relative viability ([8]; first compound 0.1265 µM): 0.406
- relative viability ([8]; first compound 1.265 µM): 0.49
- relative viability ([8]; first compound 4 µM): 0.475
- relative viability ([9]; first compound 0.04 µM): 0.459
- relative viability ([9]; first compound 0.1265 µM): 0.436
- relative viability ([9]; first compound 0.4 µM): 0.417
- relative viability ([9]; first compound 1.265 µM): 0.45
- relative viability ([9]; first compound 4 µM): 0.481
- relative viability ([10]; first compound 0.04 µM): 0.172
- relative viability ([10]; first compound 0.1265 µM): 0.252
- relative viability ([10]; first compound 0.4 µM): 0.194
- relative viability ([10]; first compound 1.265 µM): 0.247
- relative viability ([10]; first compound 4 µM): 0.21
- relative viability ([11]; first compound 0.04 µM): 0.549
- relative viability ([11]; first compound 0.1265 µM): 0.483
- relative viability ([11]; first compound 0.4 µM): 0.542
- relative viability ([11]; first compound 1.265 µM): 0.457
- relative viability ([11]; first compound 4 µM): 0.55
- relative viability ([12]; first compound 0.04 µM): 0.418
- relative viability ([12]; first compound 0.1265 µM): 0.383
- relative viability ([12]; first compound 0.4 µM): 0.435
- relative viability ([12]; first compound 1.265 µM): 0.355
